Results published in the supplement of paper PMC10307832.

Columns and labels:
Experiment in all cases: relative viability (nuclei count vs DMSO), 5 days (fraction); higher = more cells survive
NCI-H1734 = tested on: NCI-H1734
Method in brief: (§1)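 Lung cancer cell lines were pin-tool dosed in 1536-well plates on the day after seeding, with either a lone drug or a fixed anchor-drug dose plus five library-drug doses (not always all listed) in √10 steps. Nuclei were counted on 4× images after 5 days. Relative viability is the ratio of treated-well to vehicle-well nuclei counts, with each value a median of duplicate plates.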

LK-2 = tested on: LK-2
Method in brief: as §1

UMC-11 = tested on: UMC-11
Method in brief: as §1

NCI-H2009 = tested on: NCI-H2009
Method in brief: as §1

NCI-H1623 = tested on: NCI-H1623
Method in brief: as §1

NCI-H1650 = tested on: NCI-H1650
Method in brief: as §1

CAL-12T = tested on: CAL-12T
Method in brief: as §1

A-427 = tested on: A-427
Method in brief: as §1

COc1cc2nccc(Oc3ccc(NC(=O)Nc4cc(C)on4)c(Cl)c3)c2cc1OC [Tivozanib] + Cc1nc(Nc2ncc(C(=O)Nc3c(C)cccc3Cl)s2)cc(N2CCN(CCO)CC2)n1 [Dasatinib] (partner 0.075 µM)
relative viability (NCI-H1734; first compound 0.005 µM): 0.424
relative viability (NCI-H1734; first compound 0.01581 µM): 0.536
relative viability (NCI-H1734; first compound 0.05 µM): 0.51
relative viability (NCI-H1734; first compound 0.1581 µM): 0.366
relative viability (NCI-H1734; first compound 0.5 µM): 0.425
relative viability (LK-2; first compound 0.005 µM): 0.226
relative viability (LK-2; first compound 0.01581 µM): 0.29
relative viability (LK-2; first compound 0.05 µM): 0.289
relative viability (LK-2; first compound 0.1581 µM): 0.214
relative viability (LK-2; first compound 0.5 µM): 0.23
relative viability (UMC-11; first compound 0.005 µM): 0.416
relative viability (UMC-11; first compound 0.01581 µM): 0.46
relative viability (UMC-11; first compound 0.05 µM): 0.465
relative viability (UMC-11; first compound 0.5 µM): 0.38
relative viability (NCI-H2009; first compound 0.005 µM): 0.31
relative viability (NCI-H2009; first compound 0.01581 µM): 0.299
relative viability (NCI-H2009; first compound 0.05 µM): 0.333
relative viability (NCI-H2009; first compound 0.1581 µM): 0.262
relative viability (NCI-H2009; first compound 0.5 µM): 0.22
relative viability (NCI-H1623; first compound 0.005 µM): 0.509
relative viability (NCI-H1623; first compound 0.01581 µM): 0.56
relative viability (NCI-H1623; first compound 0.05 µM): 0.578
relative viability (NCI-H1623; first compound 0.5 µM): 0.527
relative viability (NCI-H1650; first compound 0.005 µM): 0.309
relative viability (NCI-H1650; first compound 0.01581 µM): 0.361
relative viability (NCI-H1650; first compound 0.05 µM): 0.346
relative viability (NCI-H1650; first compound 0.1581 µM): 0.27
relative viability (NCI-H1650; first compound 0.5 µM): 0.267
relative viability (CAL-12T; first compound 0.005 µM): 0.402
relative viability (CAL-12T; first compound 0.01581 µM): 0.527
relative viability (CAL-12T; first compound 0.05 µM): 0.481
relative viability (CAL-12T; first compound 0.1581 µM): 0.343
relative viability (CAL-12T; first compound 0.5 µM): 0.285
relative viability (A-427; first compound 0.005 µM): 0.645
relative viability (A-427; first compound 0.01581 µM): 0.669
relative viability (A-427; first compound 0.05 µM): 0.699
relative viability (A-427; first compound 0.1581 µM): 0.538
relative viability (A-427; first compound 0.5 µM): 0.686

Cc1sc2c(c1C)C(c1ccc(Cl)cc1)=N[C@@H](CC(=O)OC(C)(C)C)c1nnc(C)n1-2 [JQ1] + CCNC(=O)c1noc(-c2cc(C(C)C)c(O)cc2O)c1-c1ccc(CN2CCOCC2)cc1 [Luminespib] (partner 0.01 µM)
relative viability (NCI-H1734; first compound 0.04 µM): 0.254
relative viability (NCI-H1734; first compound 0.1265 µM): 0.165
relative viability (NCI-H1734; first compound 0.4 µM): 0.158
relative viability (NCI-H1734; first compound 1.265 µM): 0.124
relative viability (NCI-H1734; first compound 4 µM): 0.173
relative viability (LK-2; first compound 0.04 µM): 0.188
relative viability (LK-2; first compound 0.1265 µM): 0.157
relative viability (LK-2; first compound 0.4 µM): 0.143
relative viability (LK-2; first compound 1.265 µM): 0.142
relative viability (LK-2; first compound 4 µM): 0.136
relative viability (UMC-11; first compound 0.04 µM): 0.865
relative viability (UMC-11; first compound 0.1265 µM): 0.83
relative viability (UMC-11; first compound 0.4 µM): 0.336
relative viability (UMC-11; first compound 1.265 µM): 0.278
relative viability (UMC-11; first compound 4 µM): 0.219
relative viability (NCI-H2009; first compound 0.04 µM): 0.971
relative viability (NCI-H2009; first compound 0.1265 µM): 0.657
relative viability (NCI-H2009; first compound 0.4 µM): 0.878
relative viability (NCI-H2009; first compound 1.265 µM): 0.295
relative viability (NCI-H2009; first compound 4 µM): 0.298
relative viability (NCI-H1623; first compound 0.04 µM): 0.543
relative viability (NCI-H1623; first compound 0.1265 µM): 0.593
relative viability (NCI-H1623; first compound 0.4 µM): 0.459
relative viability (NCI-H1623; first compound 1.265 µM): 0.466
relative viability (NCI-H1623; first compound 4 µM): 0.418
relative viability (NCI-H1650; first compound 0.04 µM): 0.21
relative viability (NCI-H1650; first compound 0.1265 µM): 0.199
relative viability (NCI-H1650; first compound 0.4 µM): 0.167
relative viability (NCI-H1650; first compound 1.265 µM): 0.161
relative viability (NCI-H1650; first compound 4 µM): 0.206
relative viability (CAL-12T; first compound 0.04 µM): 0.364
relative viability (CAL-12T; first compound 0.1265 µM): 0.184
relative viability (CAL-12T; first compound 0.4 µM): 0.367
relative viability (CAL-12T; first compound 1.265 µM): 0.134
relative viability (CAL-12T; first compound 4 µM): 0.146
relative viability (A-427; first compound 0.04 µM): 0.795
relative viability (A-427; first compound 0.1265 µM): 0.97
relative viability (A-427; first compound 0.4 µM): 0.847
relative viability (A-427; first compound 1.265 µM): 0.563
relative viability (A-427; first compound 4 µM): 0.431
